Assays:
crcB fluoride riboswitch = conditions: in-line probing; cited from earlier work
Cas13a = biological target: T1, Cas13a (Leptotrichia wadei, UniProt U2PSH1); test: SHERLOCK reactions without RNAP at varying sodium fluoride; assay type: biochemical, Leptotrichia wadeii; conditions: FIG. 6A
T1 construct: His-tag (N, cleaved yes); twinstrep (N, cleaved yes); SUMO (N, cleaved yes); made in house; host or cells: BL21(DE3) Rosetta Escherichia coli
T1 sequence (U2PSH1 1-1182): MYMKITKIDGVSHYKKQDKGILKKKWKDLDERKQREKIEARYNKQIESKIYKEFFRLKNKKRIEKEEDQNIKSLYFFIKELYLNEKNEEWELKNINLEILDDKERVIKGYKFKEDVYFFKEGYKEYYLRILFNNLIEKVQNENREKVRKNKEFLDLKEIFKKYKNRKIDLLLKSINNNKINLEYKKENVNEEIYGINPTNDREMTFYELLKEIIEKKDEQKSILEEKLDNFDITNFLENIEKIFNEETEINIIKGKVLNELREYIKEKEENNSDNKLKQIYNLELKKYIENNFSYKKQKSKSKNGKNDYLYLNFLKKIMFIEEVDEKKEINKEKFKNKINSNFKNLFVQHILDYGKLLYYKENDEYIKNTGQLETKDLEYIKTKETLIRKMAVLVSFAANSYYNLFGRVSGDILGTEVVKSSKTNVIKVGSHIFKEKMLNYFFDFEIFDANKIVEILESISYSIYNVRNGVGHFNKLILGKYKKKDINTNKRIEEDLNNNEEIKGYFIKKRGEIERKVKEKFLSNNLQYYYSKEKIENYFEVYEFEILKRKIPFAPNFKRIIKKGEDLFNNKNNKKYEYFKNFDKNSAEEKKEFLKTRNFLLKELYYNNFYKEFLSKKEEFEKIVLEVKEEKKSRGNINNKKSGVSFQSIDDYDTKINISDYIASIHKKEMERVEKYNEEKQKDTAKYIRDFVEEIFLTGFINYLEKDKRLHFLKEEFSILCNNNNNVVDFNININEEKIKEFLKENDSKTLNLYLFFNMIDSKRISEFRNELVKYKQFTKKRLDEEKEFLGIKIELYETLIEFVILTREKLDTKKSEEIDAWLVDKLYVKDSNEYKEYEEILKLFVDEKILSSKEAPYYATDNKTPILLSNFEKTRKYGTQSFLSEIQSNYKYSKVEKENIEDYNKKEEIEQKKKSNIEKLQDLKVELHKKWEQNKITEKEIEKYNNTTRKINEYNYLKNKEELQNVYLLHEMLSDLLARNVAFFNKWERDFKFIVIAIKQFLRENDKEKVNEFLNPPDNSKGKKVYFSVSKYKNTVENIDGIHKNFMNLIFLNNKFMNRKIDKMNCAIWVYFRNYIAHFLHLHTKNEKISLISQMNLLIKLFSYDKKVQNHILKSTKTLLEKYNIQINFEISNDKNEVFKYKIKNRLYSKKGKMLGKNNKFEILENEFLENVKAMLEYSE
Experimental: Purification of LwaCas13a protein. LwaCas13a from Leptotrichia wadeii has a specific preference for collaterally cleaving poly-uracil ssRNA oligos and was used for various experiments in these examples. LwaCas13a was purified as follows. The expression plasmid (pC013) encoded LwaCas13a with an N-terminal His-tag, followed by twinstrep and SUMO tags. The plasmid was transformed into BL21(DE3) Rosetta Escherichia coli cells. 20 mL bacterial culture was grown overnight in Luria broth (LB) medium supplemented with 100 μM carbenicillin that was used to inoculate 1 L cultures in LB medium. The culture was shaken at 37° C. until the OD600 reached around 0.6. The culture was cooled down to approximately 20° C. in a cold water bath and protein expression was induced by adding 0.5 mM Isopropyl beta-D-1-thiogalactopyronoside (IPTG). The culture was grown in a 20° C. shaker for 16 hours. […] Protein concentration was determined using the absorbance at 280 nm and an extinction coefficient of 119800 M^−1 cm^−1; 1.5 mL of 47 μM protein was obtained from 2 liters of culture. […]
In other methods, SHERLOCK reactions were performed with purified target RNA as input, the concentration of the components, order of addition of components and measurement of fluorescence was carried out the same way as in the SPRINT reactions. […]

[F-].[Na+] [fluoride, sodium fluoride]
Kd (crcB fluoride riboswitch): ~60 µM | fluoride concentration at which Cas13a activity sharply dropped (Cas13a): around 600 μM
